Measurements published in patent US12503438B2, “Compounds for the treatment of kinase-dependent disorders” (Exelixis, Inc., priority 2019, dated 2025).

How the values were obtained:
Mer = target: T1, Mer (Homo sapiens, UniProt Q12866); experiment: Mer autophosphorylation ELISA in transient transfected 293A cells; format: cell-based; details: cellular activity; MERTK-transfected 293A cells, phospho-Mer ELISA
T1 construct: host or cells: 293A cells (Thermo Fisher #R70507)
T1 sequence (Q12866 21-999): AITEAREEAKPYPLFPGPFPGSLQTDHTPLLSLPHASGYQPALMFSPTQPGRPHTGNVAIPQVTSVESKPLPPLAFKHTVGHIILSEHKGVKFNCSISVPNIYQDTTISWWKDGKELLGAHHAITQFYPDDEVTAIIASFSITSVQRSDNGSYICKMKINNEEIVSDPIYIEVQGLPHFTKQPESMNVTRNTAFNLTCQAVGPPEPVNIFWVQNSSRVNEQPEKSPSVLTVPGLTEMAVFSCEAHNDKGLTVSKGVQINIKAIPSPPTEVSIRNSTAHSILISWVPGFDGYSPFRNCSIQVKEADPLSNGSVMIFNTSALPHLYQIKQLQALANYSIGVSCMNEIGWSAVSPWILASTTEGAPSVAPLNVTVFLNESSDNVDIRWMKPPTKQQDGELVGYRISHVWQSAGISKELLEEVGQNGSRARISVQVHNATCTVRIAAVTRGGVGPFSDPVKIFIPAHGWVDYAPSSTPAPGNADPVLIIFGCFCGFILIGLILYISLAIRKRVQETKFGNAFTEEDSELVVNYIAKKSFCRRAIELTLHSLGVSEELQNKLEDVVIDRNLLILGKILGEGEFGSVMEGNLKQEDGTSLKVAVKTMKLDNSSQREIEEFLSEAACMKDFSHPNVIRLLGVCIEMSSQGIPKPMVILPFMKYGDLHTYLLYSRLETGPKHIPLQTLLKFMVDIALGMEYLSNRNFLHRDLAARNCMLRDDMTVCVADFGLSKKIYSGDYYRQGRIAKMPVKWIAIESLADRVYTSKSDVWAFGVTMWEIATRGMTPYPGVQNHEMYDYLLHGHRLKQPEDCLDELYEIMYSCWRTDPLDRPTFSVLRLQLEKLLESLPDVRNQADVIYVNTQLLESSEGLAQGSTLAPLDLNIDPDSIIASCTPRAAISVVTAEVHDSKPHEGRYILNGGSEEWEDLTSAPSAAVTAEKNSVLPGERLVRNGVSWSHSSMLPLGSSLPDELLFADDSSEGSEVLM
Description: 293A cells (Thermo Fisher #R70507) were seeded at 1.5×10^6 cells/well onto 100 mm dish (Greiner #664169), in DMEM (Thermo Fisher #11995-040) containing 10% FBS (Thermo Fisher #26140-079), 1% MEM NEAA (Thermo Fisher #11140-050), 1% GlutaMax (Thermo Fisher #35050-061), and 1% Penicillin Streptomycin (Thermo Fisher #15140-122). 293A cells were incubated at 37° C., 5% CO2 for 24 h and then transfected with 6 μg MERTK DNA (Genecopoeia #EX-Z8208-M02) using TransIT LT1 transfection reagent (Mirus-Bio #MIR2305). After 24 h incubation, the transfected 293A cells were seeded at 1×10^5 cells/well onto 96-well plates (Corning #3904) in DMEM growth medium overnight. Test compounds were serially diluted to produce an 8-point dose curve in fresh serum-free medium to a final concentration of 0.3% DMSO (vehicle) and added to the cells and incubated for 1 h. Cells were then immediately lysed with 150 μL of cold 1× lysis buffer [20 mM Tris, 137 mM sodium chloride, 2 mM EDTA, 10% glycerol, 1% NP-40 alternative, 1 mM activated sodium orthovanadate, 1 mM PefaBloc SC (Sigma-Aldrich #11429868001), protease/phosphatase inhibitor tablet (Thermo Fisher #A32959)]. Lysates were clarified by centrifugation and 50 μL/well added into the human phospho-Mer DuoSet IC ELISA (R&D Systems #DYC2579-2). Assay was performed according to manufacturer's instructions and sample phospho-Mer concentrations were extrapolated using human phospho-Mer control (R&D Systems #841793) as a standard. Positive control wells (100% activity) contained DMSO-treated cell lysates. Negative control wells (0% activity) contained reference inhibitor-treated cell lysates. IC50 values were calculated by nonlinear regression analysis using a 4-parameter logistic curve fit in ActivityBase XE (IDBS).

Met = Met (Homo sapiens, UniProt P08581); experiment: Met autophosphorylation ELISA in PC-3 cells; format: cell-based; parameters: endogenous in cells; host or cells: PC-3 prostate cancer cells (ATCC #CRL-1435); details: cellular activity, HGF-stimulated, phospho-Met ELISA, read-out: c-Met IC50
Sequence of Met (P08581 25-1390): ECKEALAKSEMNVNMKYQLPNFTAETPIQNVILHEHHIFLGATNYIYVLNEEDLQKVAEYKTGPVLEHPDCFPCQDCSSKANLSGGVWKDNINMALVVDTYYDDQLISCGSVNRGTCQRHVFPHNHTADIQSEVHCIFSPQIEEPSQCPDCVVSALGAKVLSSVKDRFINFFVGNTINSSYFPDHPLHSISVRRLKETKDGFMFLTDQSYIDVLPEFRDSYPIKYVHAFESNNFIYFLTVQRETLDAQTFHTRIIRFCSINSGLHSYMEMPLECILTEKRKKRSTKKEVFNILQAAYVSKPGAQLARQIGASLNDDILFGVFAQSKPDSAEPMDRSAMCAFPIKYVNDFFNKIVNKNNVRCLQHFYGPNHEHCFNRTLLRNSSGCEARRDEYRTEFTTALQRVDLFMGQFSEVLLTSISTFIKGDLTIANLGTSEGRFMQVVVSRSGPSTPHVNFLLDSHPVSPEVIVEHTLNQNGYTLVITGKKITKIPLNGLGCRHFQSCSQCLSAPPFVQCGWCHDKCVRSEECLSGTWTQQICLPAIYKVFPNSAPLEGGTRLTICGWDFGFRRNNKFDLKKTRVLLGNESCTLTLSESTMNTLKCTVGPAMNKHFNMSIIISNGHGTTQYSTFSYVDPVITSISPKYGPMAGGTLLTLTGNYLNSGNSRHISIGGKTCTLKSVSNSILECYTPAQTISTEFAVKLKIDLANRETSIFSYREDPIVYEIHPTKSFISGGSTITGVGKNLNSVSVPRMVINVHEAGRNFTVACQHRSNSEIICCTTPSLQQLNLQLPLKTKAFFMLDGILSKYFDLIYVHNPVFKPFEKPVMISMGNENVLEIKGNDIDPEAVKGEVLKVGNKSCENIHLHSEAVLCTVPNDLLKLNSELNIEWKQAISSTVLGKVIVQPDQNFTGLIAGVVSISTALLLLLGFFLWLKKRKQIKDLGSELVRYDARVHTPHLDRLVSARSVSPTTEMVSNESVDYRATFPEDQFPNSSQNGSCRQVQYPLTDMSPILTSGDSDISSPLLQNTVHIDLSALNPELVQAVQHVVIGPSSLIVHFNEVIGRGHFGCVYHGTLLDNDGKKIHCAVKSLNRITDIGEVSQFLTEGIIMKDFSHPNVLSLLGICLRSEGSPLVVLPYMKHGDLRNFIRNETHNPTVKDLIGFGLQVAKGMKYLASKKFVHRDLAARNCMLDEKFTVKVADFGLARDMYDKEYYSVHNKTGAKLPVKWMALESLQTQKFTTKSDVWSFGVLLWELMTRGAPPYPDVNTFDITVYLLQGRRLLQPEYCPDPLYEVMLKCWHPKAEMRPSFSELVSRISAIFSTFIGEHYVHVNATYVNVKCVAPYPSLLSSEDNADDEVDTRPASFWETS
Description: PC-3 prostate cancer cells (ATCC #CRL-1435) were seeded at 4×10^4 cells/well onto 24-well plates (Greiner #662165), in DMEM (Thermo Fisher #11995-040) containing 10% FBS (Thermo Fisher #26140-079), 1% MEM NEAA (Thermo Fisher #11140-050), 1% GlutaMax (Thermo Fisher #35050-061), and 1% Penicillin Streptomycin (Thermo Fisher #15140-122). PC-3 cells were incubated at 37° C., 5% CO2 for 24 h and then starved for 3 h in serum-free medium. Test compounds were serially diluted to produce an 8-point dose curve in fresh serum-free medium to a final concentration of 0.3% DMSO (vehicle) and added to the cells and incubated for 1 h. Cells were then stimulated with 100 ng/mL recombinant human HGF (R&D Systems #294-HG-250) for 10 min, washed with cold PBS and immediately lysed with 130 μL of cold 1× lysis buffer [20 mM Tris, 137 mM sodium chloride, 2 mM EDTA, 10% glycerol, 1% NP-40 alternative, 1 mM activated sodium orthovanadate, 1 mM PefaBloc SC (Sigma-Aldrich #11429868001), protease/phosphatase inhibitor tablet (Thermo Fisher #A32959)]. Lysates were clarified by centrifugation and 100 μL/well added into the PathScan phospho-Met (panTyr) Sandwich ELISA (Cell Signaling Technology #7333). Assay was performed according to manufacturer's instructions. Positive control wells (100% activity) contained HGF-stimulated, DMSO-treated cell lysates. Negative control wells (0% activity) contained HGF-stimulated, reference inhibitor-treated cell lysates. IC50 values were calculated by nonlinear regression analysis using a 4-parameter logistic curve fit in ActivityBase XE (IDBS).

SMILES | IC50 (Mer) | IC50 (Met)
O=C(Nc1ccc(F)cc1)C1(C(=O)Nc2ccc(Oc3ccnc4cc(-c5ccnnc5)ccc34)cc2)CC1 [Compound 28, 1-N′-(4-Fluorophenyl)-1-N-[4-(7-pyridazin-4-ylquinolin-4-yl)oxyphenyl]cyclopropane-1,1-dicarboxamide] | 10 to 100 nM | ≤ 10 nM
O=C(Nc1ccc(F)cc1)C1(C(=O)Nc2ccc(Oc3ccnc4cc(-c5cnn6c5CCC6)ccc34)cc2)CC1 [Compound 29, 1-N-[4-[7-(5,6-Dihydro-4H-pyrrolo[1,2-b]pyrazol-3-yl)quinolin-4-yl]oxyphenyl]-1-N′-(4-fluorophenyl)cyclopropane-1,1-dicarboxamide] | 10 to 100 nM | 10 to 100 nM
Cc1cc(-c2ccc3c(Oc4ccc(NC(=O)C5(C(=O)Nc6ccc(F)cc6)CC5)cc4)ccnc3c2)ccn1 [Compound 30, 1-N′-(4-Fluorophenyl)-1-N-[4-[7-(2-methylpyridin-4-yl)quinolin-4-yl]oxyphenyl]cyclopropane-1,1-dicarboxamide] | 10 to 100 nM | 10 to 100 nM
COc1cc(-c2ccc3c(Oc4ccc(NC(=O)C5(C(=O)Nc6ccc(F)cc6)CC5)cc4)ccnc3c2)ccn1 [Compound 31, 1-N′-(4-Fluorophenyl)-1-N-[4-[7-(2-methoxypyridin-4-yl)quinolin-4-yl]oxyphenyl]cyclopropane-1,1-dicarboxamide] | 10 to 100 nM | 10 to 100 nM
O=C(Nc1ccc(F)cc1)C1(C(=O)Nc2ccc(Oc3ccnc4cc(-c5ccnc(F)c5)ccc34)cc2)CC1 [Compound 33, 1-N′-(4-Fluorophenyl)-1-N-[4-[7-(2-fluoropyridin-4-yl)quinolin-4-yl]oxyphenyl]cyclopropane-1,1-dicarboxamide] | 10 to 100 nM | 10 to 100 nM
N#Cc1cc(-c2ccc3c(Oc4ccc(NC(=O)C5(C(=O)Nc6ccc(F)cc6)CC5)cc4)ccnc3c2)ccn1 [Compound 34, 1-N-[4-[7-(2-Cyanopyridin-4-yl)quinolin-4-yl]oxyphenyl]-1-N′-(4-fluorophenyl)cyclopropane-1,1-dicarboxamide] | 10 to 100 nM | 10 to 100 nM
Nc1ccc(-c2ccc3c(Oc4ccc(NC(=O)C5(C(=O)Nc6ccc(F)cc6)CC5)cc4)ccnc3c2)cn1 [Compound 38, 1-N-[4-[7-(6-Aminopyridin-3-yl)quinolin-4-yl]oxyphenyl]-1-N′-(4-fluorophenyl)cyclopropane-1,1-dicarboxamide] | 10 to 100 nM | 10 to 100 nM
O=C(Nc1ccc(F)cc1)C1(C(=O)Nc2ccc(Oc3ccnc4cc(-c5cnc6[nH]ncc6c5)ccc34)cc2)CC1 [Compound 39, 1-N′-(4-Fluorophenyl)-1-N-[4-[7-(1H-pyrazolo[3,4-b]pyridin-5-yl)quinolin-4-yl]oxyphenyl]cyclopropane-1,1-dicarboxamide] | 10 to 100 nM | 10 to 100 nM
N#Cc1cncc(-c2ccc3c(Oc4ccc(NC(=O)C5(C(=O)Nc6ccc(F)cc6)CC5)cc4)ccnc3c2)c1 [Compound 40, 1-N-[4-[7-(5-Cyanopyridin-3-yl)quinolin-4-yl]oxyphenyl]-1-N′-(4-fluorophenyl)cyclopropane-1,1-dicarboxamide] | 10 to 100 nM | 10 to 100 nM
O=C(Nc1ccc(F)cc1)C1(C(=O)Nc2ccc(Oc3ccnc4cc(-c5ccc(F)nc5)ccc34)cc2)CC1 [Compound 41, 1-N′-(4-Fluorophenyl)-1-N-[4-[7-(6-fluoropyridin-3-yl)quinolin-4-yl]oxyphenyl]cyclopropane-1,1-dicarboxamide] | 10 to 100 nM | 10 to 100 nM
N#Cc1ccc(-c2ccc3c(Oc4ccc(NC(=O)C5(C(=O)Nc6ccc(F)cc6)CC5)cc4)ccnc3c2)cn1 [Compound 42, 1-N-[4-[7-(6-Cyanopyridin-3-yl)quinolin-4-yl]oxyphenyl]-1-N′-(4-fluorophenyl)cyclopropane-1,1-dicarboxamide] | 10 to 100 nM | 10 to 100 nM

Now from value to compound:

IC50 (Mer) | IC50 (Met) | SMILES
≤ 10 nM | 10 to 100 nM | O=C(Nc1ccc(F)cc1)C1(C(=O)Nc2ccc(Oc3ccnc4cc(-c5cnn(C6CC6)c5)ccc34)cc2)CC1 [Compound 22, 1-N-[4-[7-(1-Cyclopropylpyrazol-4-yl)quinolin-4-yl]oxyphenyl]-1-N′-(4-fluorophenyl)cyclopropane-1,1-dicarboxamide]
10 to 100 nM | 10 to 100 nM | CC(C)(C)n1cc(-c2ccc3c(Oc4ccc(NC(=O)C5(C(=O)Nc6ccc(F)cc6)CC5)cc4)ccnc3c2)cn1 [Compound 23, 1-N-[4-[7-(1-tert-Butylpyrazol-4-yl)quinolin-4-yl]oxyphenyl]-1-N′-(4-fluorophenyl)cyclopropane-1,1-dicarboxamide]
≤ 10 nM | ≤ 10 nM | O=C(Nc1ccc(F)cc1)C1(C(=O)Nc2ccc(Oc3ccnc4cc(-c5cnn(C6COC6)c5)ccc34)cc2)CC1 [Compound 24, 1-N′-(4-Fluorophenyl)-1-N-[4-[7-[1-(oxetan-3-yl)pyrazol-4-yl]quinolin-4-yl]oxyphenyl]cyclopropane-1,1-dicarboxamide]
10 to 100 nM | 10 to 100 nM | O=C(Nc1ccc(F)cc1)C1(C(=O)Nc2ccc(Oc3ccnc4cc(-c5cccnc5)ccc34)cc2)CC1 [Compound 25, 1-N′-(4-Fluorophenyl)-1-N-[4-(7-pyridin-3-ylquinolin-4-yl)oxyphenyl]cyclopropane-1,1-dicarboxamide]
10 to 100 nM | ≤ 10 nM | O=C(Nc1ccc(F)cc1)C1(C(=O)Nc2ccc(Oc3ccnc4cc(-c5ccncc5)ccc34)cc2)CC1 [Compound 26, 1-N′-(4-Fluorophenyl)-1-N-[4-(7-pyridin-4-ylquinolin-4-yl)oxyphenyl]cyclopropane-1,1-dicarboxamide]
10 to 100 nM | 10 to 100 nM | O=C(Nc1ccc(F)cc1)C1(C(=O)Nc2ccc(Oc3ccnc4cc(-c5cncnc5)ccc34)cc2)CC1 [Compound 27, 1-N′-(4-Fluorophenyl)-1-N-[4-(7-pyrimidin-5-ylquinolin-4-yl)oxyphenyl]cyclopropane-1,1-dicarboxamide]
